In PubChem BioAssay AID328 (DTP/NCI, 2004):
Values joined by “and” are separate entries in the source; they are usually repeats but may differ in a detail not shown here. Equal values may be shown once. Inconclusive results and toxic doses are left out.

System: BDF1 mice, P388 leukemia ip, median survival T/C
Test: NCI In Vivo Anticancer Drug Screen. Data for tumor model P388 Leukemia (intraperitoneal) in B6D2F1 (BDF1) mice
Settings: endpoint: median survival time, higher = longer survival
Protocol: The antitumor activity of compounds was measured in mice bearing transplantable tumors. Survival or tumor size were measured and the results are expressed as the measurement made in the treated group (T) divided by the measurement made in the vehicle treated control group (C). The tumor model used in this assay is P388 Leukemia (intraperitoneal) in B6D2F1 (BDF1) mice

[1] = dose: 50.0 mg/kg/injection, schedule: Q01DX009 (ip), vehicle: saline with Tween-80
[2] = dose: 100.0 mg/kg/injection, schedule: Q01DX009 (ip), vehicle: saline with Tween-80
[3] = dose: 200.0 mg/kg/injection, schedule: Q01DX009 (ip), vehicle: saline with Tween-80
[4] = dose: 100.0 mg/kg/injection, schedule: Q04DX003 (ip), vehicle: saline with Tween-80
[5] = dose: 200.0 mg/kg/injection, schedule: Q04DX003 (ip), vehicle: saline with Tween-80
[6] = dose: 400.0 mg/kg/injection, schedule: Q01DX009 (ip), vehicle: saline with Tween-80
[7] = dose: 400.0 mg/kg/injection, schedule: Q04DX003 (ip), vehicle: saline with Tween-80
[8] = dose: 25.0 mg/kg/injection, schedule: Q04DX003 (ip), vehicle: saline with Tween-80

c1ccc2c(c1)nnn2OC1CCCC1
T/C [1]: 106 % of control
T/C [2]: 116 % of control
T/C [3]: 119 % of control

CCCCCCCCCCCCCCOc1ccc(C=O)cc1OC
T/C (dose: 100.0 mg/kg/injection, schedule: Q01DX001 (ip), vehicle: Klucel (hydroxypropylcellulose) (HPC)): 100 % of control
T/C (dose: 200.0 mg/kg/injection, schedule: Q01DX001 (ip), vehicle: Klucel (hydroxypropylcellulose) (HPC)): 100 % of control
T/C (dose: 400.0 mg/kg/injection, schedule: Q01DX001 (ip), vehicle: Klucel (hydroxypropylcellulose) (HPC)): 100 % of control

Brc1c(-c2ccccc2)cc(-c2ccccc2)cc1-c1ccccc1
T/C (dose: 100.0 mg/kg/injection, schedule: Q04DX003 (ip), vehicle: Klucel (hydroxypropylcellulose) (HPC)): 108 % of control
T/C (dose: 200.0 mg/kg/injection, schedule: Q04DX003 (ip), vehicle: Klucel (hydroxypropylcellulose) (HPC)): 95 % of control
T/C (dose: 400.0 mg/kg/injection, schedule: Q04DX003 (ip), vehicle: Klucel (hydroxypropylcellulose) (HPC)): 95 % of control

O=C(O)c1cc(Br)ccc1OCc1cccc(Cl)c1
T/C [4]: 99 % of control

CCOC(=O)CN(C)C#N
T/C (dose: 50.0 mg/kg/injection, schedule: Q01DX009 (ip), vehicle: saline): 110 % of control
T/C (dose: 87.5 mg/kg/injection, schedule: Q01DX009 (ip), vehicle: saline): 109 % of control
T/C (dose: 100.0 mg/kg/injection, schedule: Q01DX009 (ip), vehicle: saline): 105 % of control
T/C (dose: 100.0 mg/kg/injection, schedule: Q04DX003 (ip), vehicle: saline): 104 % of control
T/C (dose: 175.0 mg/kg/injection, schedule: Q01DX009 (ip), vehicle: saline): 104 % of control
T/C (dose: 200.0 mg/kg/injection, schedule: Q04DX003 (ip), vehicle: saline): 104 % of control
T/C (dose: 265.0 mg/kg/injection, schedule: Q01DX009 (ip), vehicle: saline): 109 % of control
T/C (dose: 400.0 mg/kg/injection, schedule: Q01DX009 (ip), vehicle: saline): 95 % of control
T/C (dose: 400.0 mg/kg/injection, schedule: Q04DX003 (ip), vehicle: saline): 104 % of control

C=C(C)C1CCC2(C=O)CCC3(C)C(CCC4C5(C)CCC(O)C(C)(C)C5CCC43C)C12 (stereo not drawn)
T/C (dose: 18.75 mg/kg/injection, schedule: Q01DX009 (ip), vehicle: Klucel (hydroxypropylcellulose) (HPC)): 91 % of control
T/C (dose: 37.5 mg/kg/injection, schedule: Q01DX009 (ip), vehicle: Klucel (hydroxypropylcellulose) (HPC)): 88 % of control
T/C (dose: 75.0 mg/kg/injection, schedule: Q01DX009 (ip), vehicle: Klucel (hydroxypropylcellulose) (HPC)): 95 % of control

O=C1c2ccccc2C(=O)N1OC1CCCCO1 (stereo not drawn)
T/C [2]: 91 % of control
T/C [4]: 100 % of control
T/C [3]: 87 % of control
T/C [5]: 108 % of control
T/C [6]: 100 % of control
T/C [7]: 104 % of control

Clc1ccc(NC2=NCCN=C(Nc3ccc(Cl)cc3)SS2)cc1
T/C (dose: 50.0 mg/kg/injection, schedule: Q01DX009 (ip), vehicle: Klucel (hydroxypropylcellulose) (HPC)): 91 % of control
T/C (dose: 100.0 mg/kg/injection, schedule: Q01DX009 (ip), vehicle: Klucel (hydroxypropylcellulose) (HPC)): 91 % of control

CCCCCCCCCCCCCCCCCCCCCCCCCCCC(=O)OCC(O)CO (stereo not drawn)
T/C (dose: 0.25 mg/kg/injection, schedule: Q01DX009 (ip), vehicle: saline + alcohol): 110 % of control
T/C (dose: 1.0 mg/kg/injection, schedule: Q01DX009 (ip), vehicle: saline + alcohol): 105 % of control

Cc1cc(C)c(N)c(Br)c1
T/C (dose: 12.5 mg/kg/injection, schedule: Q01DX009 (ip), vehicle: other): 90 % of control
T/C (dose: 25.0 mg/kg/injection, schedule: Q01DX009 (ip), vehicle: other): 90 % of control
T/C (dose: 50.0 mg/kg/injection, schedule: Q01DX009 (ip), vehicle: other): 114 % of control
T/C (dose: 100.0 mg/kg/injection, schedule: Q04DX003 (ip), vehicle: other): 100 % of control

NC(=O)c1ccc[n+](Cc2c(Cl)cccc2Cl)c1
T/C (dose: 0.29 mg/kg/injection, schedule: Q01DX009 (ip), vehicle: saline): 105 % of control
T/C (dose: 0.44 mg/kg/injection, schedule: Q01DX009 (ip), vehicle: saline): 115 % of control
T/C (dose: 1.2 mg/kg/injection, schedule: Q04DX003 (ip), vehicle: saline): 122 % of control
T/C (dose: 1.25 mg/kg/injection, schedule: Q01DX009 (ip), vehicle: saline): 96 % of control
T/C (dose: 1.56 mg/kg/injection, schedule: Q01DX009 (ip), vehicle: saline): 160 % of control
T/C (dose: 2.5 mg/kg/injection, schedule: Q01DX009 (ip), vehicle: saline): 96 % of control
T/C (dose: 3.12 mg/kg/injection, schedule: Q01DX009 (ip), vehicle: saline): 185 % of control
T/C (dose: 4.12 mg/kg/injection, schedule: Q01DX009 (ip), vehicle: saline): 168 % of control
T/C (dose: 5.0 mg/kg/injection, schedule: Q01DX009 (ip), vehicle: saline): 96 % of control
T/C (dose: 6.25 mg/kg/injection, schedule: Q01DX009 (ip), vehicle: saline): 154 % of control and 191 % of control and 200 % of control
T/C (dose: 8.9 mg/kg/injection, schedule: Q04DX003 (ip), vehicle: saline): 163 % of control
T/C (dose: 10.0 mg/kg/injection, schedule: Q01DX009 (ip), vehicle: saline): 94 % of control
T/C (dose: 13.5 mg/kg/injection, schedule: Q04DX003 (ip), vehicle: saline): 154 % of control and 158 % of control
T/C (dose: 20.0 mg/kg/injection, schedule: Q01DX009 (ip), vehicle: saline): 109 % of control

CCN(CC)CCNc1ccc(C)c2sc3ccc(O)cc3c(=O)c12
T/C [1]: 183 % of control
T/C [2]: 94 % of control

C[N+]1(Cc2c[nH]c3ccsc23)CCCCC1
T/C (dose: 3.0 mg/kg/injection, schedule: Q01DX009 (ip), vehicle: saline with Tween-80): 87 % of control
T/C (dose: 3.0 mg/kg/injection, schedule: Q04DX003 (ip), vehicle: saline with Tween-80): 104 % of control
T/C (dose: 6.0 mg/kg/injection, schedule: Q01DX009 (ip), vehicle: saline with Tween-80): 91 % of control
T/C (dose: 6.0 mg/kg/injection, schedule: Q04DX003 (ip), vehicle: saline with Tween-80): 104 % of control
T/C (dose: 12.0 mg/kg/injection, schedule: Q01DX009 (ip), vehicle: saline with Tween-80): 100 % of control
T/C (dose: 12.0 mg/kg/injection, schedule: Q04DX003 (ip), vehicle: saline with Tween-80): 100 % of control

CS(=O)(=O)N(c1ccccc1[N+](=O)[O-])S(C)(=O)=O
T/C [2]: 109 % of control
T/C [4]: 87 % of control
T/C [3]: 100 % of control
T/C [5]: 100 % of control
T/C [6]: 104 % of control
T/C [7]: 104 % of control

CC(=O)CSc1nc2nccnc2[nH]1
T/C (dose: 25.0 mg/kg/injection, schedule: Q01DX009 (ip), vehicle: saline with Tween-80): 111 % of control
T/C [8]: 97 % of control
T/C [1]: 111 % of control
T/C (dose: 50.0 mg/kg/injection, schedule: Q04DX003 (ip), vehicle: saline with Tween-80): 108 % of control
T/C [2]: 106 % of control
T/C [4]: 97 % of control
T/C [3]: 106 % of control
T/C [5]: 105 % of control
T/C [6]: 103 % of control
T/C [7]: 100 % of control

C=C(CC(N)=O)C(=O)O (tested in a mixture with another compound)
T/C (dose: 88.0 mg/kg/injection, schedule: Q01DX003 (ip), vehicle: saline): 109 % of control and 113 % of control
T/C (dose: 177.0 mg/kg/injection, schedule: Q01DX003 (ip), vehicle: saline): 109 % of control and 122 % of control
T/C (dose: 266.0 mg/kg/injection, schedule: Q01DX003 (ip), vehicle: saline): 109 % of control and 122 % of control
T/C (dose: 400.0 mg/kg/injection, schedule: Q01DX003 (ip), vehicle: saline): 118 % of control and 122 % of control
T/C (dose: 600.0 mg/kg/injection, schedule: Q01DX003 (ip), vehicle: saline): 118 % of control

COc1ccc2c(c1OC)CN(C)CCc1cc3c(cc1C(=O)C2)OCO3
T/C (dose: 18.75 mg/kg/injection, schedule: Q01DX009 (ip), vehicle: saline with Tween-80): 95 % of control
T/C (dose: 37.5 mg/kg/injection, schedule: Q01DX009 (ip), vehicle: saline with Tween-80): 95 % of control

CC1CCC(C)N1P(=O)(N1CC1)N1CC1 (stereo not drawn)
T/C (dose: 16.5 mg/kg/injection, schedule: Q04DX003 (ip), vehicle: saline with Tween-80): 168 % of control and 183 % of control
T/C [8]: 120 % of control and 218 % of control

CC1CN(N)CC(C)N1Cc1ccccc1 (stereo not drawn)
T/C (dose: 3.12 mg/kg/injection, schedule: Q04DX003 (ip), vehicle: water): 98 % of control
T/C (dose: 6.25 mg/kg/injection, schedule: Q04DX003 (ip), vehicle: water): 104 % of control
T/C (dose: 12.5 mg/kg/injection, schedule: Q04DX003 (ip), vehicle: water): 108 % of control
T/C (dose: 25.0 mg/kg/injection, schedule: Q04DX003 (ip), vehicle: water): 113 % of control

COc1ccccc1Cl
T/C [2]: 103 % of control
T/C [4]: 116 % of control
T/C [3]: 103 % of control
T/C [5]: 104 % of control
T/C [6]: 96 % of control
T/C [7]: 108 % of control
